Read-outs that look alike come from different tables or passages of the source.
Columns and labels:
Reso ER1 [1] = biological target: T1, Reso ER1 (Homo sapiens, UniProt Q99788); assay: NF-kB reporter gene assay, HEK293 cells transfected with Reso ER1; type: cell-based; design: expressed in transfected cells; host or cells: HEK293, transient transfection with pcDNA3-Reso ER1
T1 sequence (Q99788 1-373): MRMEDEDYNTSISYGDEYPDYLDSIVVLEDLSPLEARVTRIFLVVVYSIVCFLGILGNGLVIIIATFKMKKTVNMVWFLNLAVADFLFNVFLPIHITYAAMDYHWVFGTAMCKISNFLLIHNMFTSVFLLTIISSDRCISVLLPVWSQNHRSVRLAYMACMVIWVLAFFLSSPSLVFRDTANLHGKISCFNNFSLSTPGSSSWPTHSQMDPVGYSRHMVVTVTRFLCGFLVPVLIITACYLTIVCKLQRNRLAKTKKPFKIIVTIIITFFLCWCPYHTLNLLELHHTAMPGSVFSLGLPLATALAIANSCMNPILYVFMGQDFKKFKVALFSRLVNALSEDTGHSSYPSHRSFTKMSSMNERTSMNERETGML
Method: HEK293 cells (1.0′10^5 cells) were transiently transfected with 50 ng pNF-kB-luciferase (Stratagene), 500 ng of either pcDNA3 or pcDNA3-GPCRs and the internal standard pRL-TK (Promega) using Superfect transfection reagent (Qiagen). After 24 h, cells were exposed to the test compounds for 30 min, stimulated with recombinant human TNF-a (1.0 ng/ml, BD Pharmingen) for 5 h. Luciferase activity was measured by the Dual-Luciferase reporter assay system (Promega). Basal induction of luciferase activity by TNF-a was >150-fold in this system. Efficient expression of GPCRs to the cell surface was observed by immunostaining using HA-tagged GPCR constructs. For PTX treatment, HEK293 cells were treated with PTX (200 ng/ml) for 24 h before stimulation.
(§1) FIG. 4d illustrate effects of PTX on Resolvin E1 induced activation and NF-kB inhibition. In—(a) HEK-hReso ER1 cells were incubated with or without PTX (200 ng/ml) for 24 h at 37 C and ERK activation was monitored by addition of Resolvin E1 (100 nM) for 5 min. In (b) HEK293 cells were transiently transfected with pcDNA-hReso ER1, pNF-kB-luciferase and pRL-TK. After 24 h with or without PTX (200 ng/ml), cells were exposed to Resolvin E1 (50 nM) for 30 min, stimulated with TNF-a (1.0 ng/ml) for 5 h, and luciferase activity was measured.

[2] = system: leukocyte infiltration in TNF-a induced dorsal air pouch; settings: 1.0 mg/mouse, reference (9); cited from earlier work
[3] = system: leukocyte infiltration in TNF-a induced dorsal air pouch; assay: Murine dorsal air-pouch model (TNF-a induced leukocyte infiltration); type: in vivo, mouse; design: inhibition of leukocyte recruitment: dose or concentration left out as unconfirmed
Method: Dorsal air pouches were raised on male FvB mice (6-8 wk) by injecting 3 ml of sterile air subcutaneously on days 0 and 3. On day 6, 100 ng/mouse of compounds were injected into tail vein. Inflammation in the air-pouch was induced by intrapouch injection of mouse recombinant TNF-a (100 ng/pouch), and pouch lavages were collected at 4 h and cells were enumerated.

[4] = system: leukocyte infiltration in zymosan-induced peritonitis; assay: Zymosan induced peritonitis (leukocyte infiltration); type: in vivo, mouse; settings: for inhibition of leukocyte recruitment: 100 ng/mouse intravenously, 2 h
Method: For peritonitis, 100 ng/mouse of Resolvin E1 or related structures was injected into tail vein and followed by 1 ml zymosan A (1 mg/ml) into the peritoneum. Peritoneal lavages were collected at 2 h and cells were enumerated.
18R-HEPE (100 ng), Resolvin E1 (100 ng), or Indomethacin (100 ng) was injected intravenously into mouse tails followed by zymosan A into the peritoneum. Mice were sacrificed, and peritoneal lavages were collected (2 h) and cells enumerated (n=3).

[5] = system: human peripheral blood monocytes; assay: Calcium mobilization in human peripheral blood monocytes; type: cell-based
splenic CD11c+ DCs = assay: In vivo activation of spleen dendritic cells with pathogen extract (STAg); design: species or system mouse; DC migration into T cell areas of the spleen: dose or concentration left out as unconfirmed; settings: STAg challenge
Method: (§2) Experiments were performed essentially as in (19). STAg was prepared from sonicated T. gondii (RH strain) tachzoytes. For isolated DC experiments, 70-85% CD11c positive DCs were isolated from spleen. CD11c+DC suspensions (1.0×10^6 cells/ml) were spread into 96-well plates and incubated for 24 h with Resolvin E1 before the addition of STAg ([…]). After overnight culture, supernatants were collected and IL-12p40 was measured with a sandwich ELISA. For in vivo treatments, C57BL/6 mice (n=3 per group) were injected intravenously with 100 ng Resolvin E1. After 18 h the animals were challenged intraperitoneally with PBS (0.2 ml/mouse), STAg (5 mg/ml) and sacrificed after an additional 6 h. CD11c+DCs were isolated from spleen and IL12-p40 secretion was measured at 24 h. For DC migration, Splenic frozen section from mice treated as above but given […] of Resolvin E1 or vehicle were stained for CD11c and counterstained with hematoxylin.

[6] = system: HEK-Reso ER1 stable transformants; assay: Calcium mobilization in HEK-Reso ER1 stable transformants; type: cell-based, human
[7] = biological target: recombinant LTB4 receptor BLT 1 (Homo sapiens, UniProt Q15722); settings: higher concentrations; reference (7); cited from earlier work
recombinant LTB4 receptor BLT 1, sequence (Q15722 whole entry): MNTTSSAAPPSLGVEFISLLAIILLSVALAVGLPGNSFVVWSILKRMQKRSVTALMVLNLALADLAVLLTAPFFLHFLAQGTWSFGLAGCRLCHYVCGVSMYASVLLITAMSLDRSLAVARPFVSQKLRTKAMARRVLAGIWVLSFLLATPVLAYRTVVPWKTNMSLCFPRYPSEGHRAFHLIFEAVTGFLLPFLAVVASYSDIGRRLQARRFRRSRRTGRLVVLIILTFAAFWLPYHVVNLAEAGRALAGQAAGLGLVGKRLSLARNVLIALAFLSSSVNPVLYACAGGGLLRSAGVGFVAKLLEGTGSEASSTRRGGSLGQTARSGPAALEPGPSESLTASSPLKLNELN

mouse splenic CD11c+ DCs = assay: IL-12p40 production by isolated splenic CD11c+ DCs stimulated with STAg; type: cell-based
Method: as §2
Chemically synthesized siRNA for mouse Reso ER1 (5′-[…]dTdT-3′) and Non-specific control IX siRNA (5′-[…]-3′) were from Dharmacon Research. Spleen cells (1.0×10^6 cells/ml) were transfected using Chariot (Active Motif) following manufacturers' instructions. Briefly, siRNA was mixed with Chariot transfection reagent and incubated at room temperature for 30 minutes. […]

[8] = LC-MS/MS analysis of Resolvin E1 in human plasma; type: in vivo; settings: oral, healthy human volunteers given EPA and aspirin, 6 donors
Method: Human plasma samples were collected at 4 hours after oral administration of fish oil supplement (Fish Oil Concentrate, Walgreens) containing EPA (1 g) and DHA (0.7 g) followed by aspirin (160 mg) at 3 h in six healthy volunteers. Plasma samples were extracted by C18 solid phase extraction with d4-LTB4 (Cascade) as internal standard for LC-MS/MS analysis (7) using a Finnigan LCQ liquid chlomatography ion trap tandem mass spectrometer equipped with a LUNA C18-2 (100×2 mm×[…]) column and UV diode array detector using mobile phase (methanol:water:acetate at 65:35:0.01) from 0 to 8 min, ramped to methanol 8 to 30 min, with a 0.2 ml/min flow rate.

Reso ER1 [9] = biological target: T1, Reso ER1; assay: [35S]-GTPgS binding assay, membranes expressing Reso ER1; type: biochemical; design: expressed in transfected cells; settings: isolated membranes from cells expressing Reso ER1; concentration-dependent
Method: HEK293 cells stably expressing human Reso ER1 were homogenized in ice-cold TED buffer (20 mM Tris-HCl pH7.5/1 mM EDTA/5 mM MgCl2/1 mM DTT). Membrane fraction ([…]) was incubated in […] of GTP-binding buffer (50 mM Hepes, pH7.5/100 mM NaCl/1 mM EDTA/5 mM MgCl2/1 mM DTT) containing 0.1 nM [^35S]-GTPgS (>1000 Ci/mmol, Amersham) and […] for 30 min at 30° C. The bound and unbound [35S]-GTPgS was separated by rapid filtration through GF/C filters, and counted by liquid scintillation. Nonspecific binding was determined in the presence of […] unlabeled GTPgS. Basal [^35S]-GTP-gS binding was 81.6+1.5 cpm/mg protein.

HEK293-Reso ER1 cells = assay: MAP kinase (ERK) activation in HEK293-Reso ER1 cells; type: cell-based, human
Method: (§3) MAP kinase activation in monocytes and HEK293 cells after treatment with 100 nM of each compound was determined. After incubations, cells were lysed in cold lysis buffer (50 mM Tris-HCl, pH 8.0, 150 mM NaCl, 0.5 mM EDTA, 1.0% NP-40, 0.5% sodium deoxycolate, 10 mM NaF, 10 mM sodium pyrophosphate) containing protease inhibitor cocktail (Sigma). […] of protein was separated on SDS-PAGE and immunoblot was performed using anti-phospho-p44/42 MAP kinase (Cell Signaling) and anti-ERK (Santa Cruz) antibodies. For PTX treatment, HEK-Reso ER1 cells were incubated with or without PTX (200 ng/ml) for 24 h at 37° C. and ERK activation was monitored by addition of Resolvin E1 (100 nM) for 5 min.
as §1

[10] = system: peripheral blood monocytes; assay: MAP kinase (ERK) activation in peripheral blood monocytes; type: cell-based, human; settings: 100 nM
Method: as §3

[11] = system: mock-transfected HEK293 cells; assay: MAP kinase (ERK) activation in mock-transfected HEK293 cells; type: cell-based, human; settings: 100 nM
Method: as §3

CC(=O)Oc1ccccc1C(=O)O [aspirin, reference compound]
inhibition at 1000 µM (Reso ER1 [1]; HEK293, 1 mM, read-out: non-receptor dependent inhibition of NF-kB): 26.2% | inhibition of leukocyte recruitment [2]: 70%

C[C@@H]1C[C@H]2[C@@H]3CCC4=CC(=O)C=C[C@]4(C)[C@@]3(F)[C@@H](O)C[C@]2(C)[C@@]1(O)C(=O)CO [dexamethasone, reference compound]
inhibition of leukocyte recruitment ([3]; local administration, dorsal air pouch): 60%

COc1ccc2c(c1)c(CC(=O)O)c(C)n2C(=O)c1ccc(Cl)cc1 [indomethacin, reference compound]
inhibition of leukocyte recruitment [4]: 25%

CCC(O)C=CC=CCC(O)C=CC=CC=CC(O)CCCC(=O)O (single isomer, unassigned) [6-trans,14-trans isomer]
reduced potency for reducing leukocyte infiltration ([4]; versus Resolvin E1): ~70%

CC[C@@H](O)/C=C/C=C\C[C@@H](O)/C=C/C=C/C=C\[C@@H](O)CCCC(=O)O [Resolvin E1, 5S,12R,18R-trihydroxy-6Z,8E,10E,14Z,16E-eicosapentaenoic acid]
inhibition of leukocyte infiltration ([3]; 100 ng/mouse, tail vein, TNF-a induced dorsal air pouch): 50-70% | inhibition of calcium mobilization by 100 nM LTB4 ([5]; 100 nM, data not shown, cell type not restated): did not inhibit calcium mobilization | calcium mobilization ([5]; human peripheral blood monocytes): did not evoke a calcium mobilization | IL-12 production in vivo (splenic CD11c+ DCs; 100 ng intravenously, IL-12p40 from splenic CD11c+ DCs): blocked IL-12 production | DC migration into T cell areas of the spleen (splenic CD11c+ DCs; Resolvin E1, CD11c staining): blocked | EC50 (Reso ER1 [1]; read-out: EC50, inhibition of TNF-a induced NF-kB activation): ~1 nM | calcium mobilization [6]: did not evoke a calcium mobilization | concentration at which it interacts with recombinant BLT1 [7]: ~0.5 mM | IL-12p40 production by STAg (mouse splenic CD11c+ DCs; isolated mouse splenic CD11c+ DCs, within the nanomolar range): markedly inhibited | action in regulating IL-12 production from DCs after siRNA specific for mouse Reso ER1 (mouse splenic CD11c+ DCs; spleen cells transfected with siRNA, STAg stimulation): eliminated | concentration at 4 h [8]: 0.1 to 0.4 ng/mL | specific [35S]-GTPgS binding (Reso ER1 [9]): increased selectively | inhibition of leukocyte recruitment [4]: 50-60% | phosphorylation of ERK MAP kinase (HEK293-Reso ER1 cells; 100 nM, HEK293-Reso ER1 cells): increased phosphoryation | Resolvin E1 dependent ERK activation after pertussis toxin (HEK293-Reso ER1 cells; PTX 200 ng/ml 24 h, Resolvin E1 100 nM, 5 min): abolished | phosphorylation of ERK MAP kinase [10]: increased phosphoryation | phosphorylation of ERK MAP kinase [11]: not in mock-transfected HEK293 cells

CC[C@H](O)/C=C/C=C\C[C@@H](O)/C=C/C=C/C=C\[C@@H](O)CCCC(=O)O (single isomer, unassigned) [18S isomer]
activity compared with native Resolvin E1 containing 18R [4]: essentially equivalent activity

Source: patent US7803557B2, “Methods for identification of eicosapentaenoic acid analogs using anti-inflammatory receptors” (The Brigham and Women's Hospital, Inc., priority 2003, dated 2010)
